Data published in patent publication US20030166609A1, “Medicine containing polysacccharide substances for activating apoptosis” (priority 2000, published 2003).

Key:
Assay type in all cases: cell-based, human
[1] = test system: Fas receptors at the surface of T lymphocytes (of the Jurkat type); assay: Fas receptors at the surface of Jurkat-type T lymphocytes, fluorescence by flow cytometry
Method: Work was carried out on a culture of immortalized human cells consisting of T lymphocytes (of the Jurkat type).
The medium used for culturing the Jurkat-type cells is that marketed by the company Life Technologies under the name “RPMI 1640 Medium”; this medium is described by Moore et al. in the publication “A.M.A.” 199, 519 (1967).
10^6 T lymphocytes of the Jurkat type were suspended in 5 ml of this medium. The culturing was carried out in an incubator at a temperature of 37° C. and in an atmosphere containing 5% CO2.
After incubation for 24 hours, the cells multiplied to reach 2×10^6 cells.
These cells are recovered by centrifugation, and are washed in an isotonic PBS buffer. A further incubation of these 2×10^6 cells is then carried out in 1 ml of the abovementioned medium at 4° C. and in an atmosphere containing 5% CO2, for 45 minutes in the presence of an anti-Fas receptor, sold under the catalog number 05-201 by Euromedex, diluted to 1/50 in PBS containing 1% of bovine serum albumin (BSA).
At the end of this incubation, the cells are collected and are washed with the isotonic PBS buffer. After washing, a further incubation of the cells is carried out for 45 minutes at 4° C. in the presence of an antibody against hamster immunoglobulins (IgGs) (produced in the goat) which is coupled to fluorescein isothiocyanate, diluted to 1/50 in PBS containing 1% of BSA (marketed by Euromedex, No. AP128F).
Controls were prepared by incubating the T lymphocytes of the Jurkat type only with the second antibody (goat anti-hamster IgG coupled to fluorescein isothio-cyanate).
The increase in the number of Fas receptors at the surface of the cells, under the action of dextran sulfate, is then determined.
Consequently, the fluorescence of the cells (which is proportional to the number of receptors present at the surface) is determined in the absence of dextran sulfate and in the presence of dextran sulfate for a number of solutions at various concentrations. The ratio of the fluorescence in the absence of dextran sulfate to the fluorescence with dextran sulfate is then calculated. In the following text, the result of this calculation is called “ratio”.
Various assays are carried out by introducing into the culture medium, at time t=0 of the experiment, dextran sulfate at the following doses: 0.2 mg/ml, 0.1 mg/ml, 0.02 mg/ml and 0.002 mg/ml; the dextran sulfate is that marketed by the company Sigma.
After various times of incubation with the dextran sulfate, the presence of Fas receptors at the surface of the cells is detected by fluorescence. This fluorescence is induced by the fluorescein isothio-cyanate coupled to the anti-Fas receptor antibodies which are attached to the Fas receptors, and was measured by passing a cell sample containing 10^4 cells through a device such as those which function by flow cytometry, in this case that marketed by the company Beckton Dickinson under the name “FACS Scan Flow Cytometer”. The intensity of the fluorescence, which is expressed in arbitrary units, therefore depends on the number of Fas receptors present at the surface of the cells making up the sample.
For each sample, the curve representing the variation in fluorescence as a function of said number of cells having receptors at their surface is constructed on a graph on which the fluorescence (arbitrary units) is recorded on the X axis and the number of cells (to within one multiplication factor) having receptors at their surface is recorded on the Y axis; this curve reflects a Gaussian-type distribution of the fluorescence.
The various assays carried out make it possible to classify the cell populations as a function of the fluorescence, i.e. as a function of the number of receptors present at the surface of the cells.
The different maximum fluorescence values for each assay, which reflect the different numbers of receptors present at the surface, depend on the active products used in the various assays. […]

[2] = test system: Fas receptors at the surface of Hep-G2 liver cells; assay: Fas receptors at the surface of Hep-G2 liver cells, fluorescence by flow cytometry; conditions: for Fluorescence Ratio: vs control
Method: Work was carried out on a culture of liver cells named Hep-G2 (marketed by ECACC (European collection of human genetic cell lines)).
The same procedure is carried out as in example 1, replacing the T lymphocytes of the Jurkat type with Hep-G2 liver cells.
The presence of Fas receptors at the surface of the cells was measured by fluorescence, as in example 1, and the results obtained are expressed as in example 1, in the form of FIGS. 9 to 12. […]
For this, the same procedure as in example 1 was carried out.

[3] = test system: TNF alpha receptors (p55 TNF receptor) on Jurkat-type cells; assay: TNF alpha receptors at the surface of Jurkat-type cells, fluorescence by flow cytometry
Method: In this example, the effect of dextran sulfate at a concentration of 0.1 mg/ml on the increase in the number of TNF alpha receptors on Jurkat-type cells was measured.
The medium used for culturing the Jurkat-type cells is that marketed by the company Life Technologies under the name “RPMI 1640 medium”; this medium is described by Moore et al. in the publication “A.M.A.” 199, 519 (1967).
10^6 T lymphocytes are suspended in 5 ml of this medium. The culturing was carried out in an incubator at a temperature of 37° C. and in an atmosphere containing 5% CO2. After incubation for 24 hours, the cells multiplied to reach 2×10^6 cells.
These cells are recovered by centrifugation, and are washed in an isotonic PBS buffer. A further incubation is then carried out in 1 ml of the abovementioned medium at 4° C. and in an atmosphere containing 5% CO2, for 45 minutes in the presence of an anti-human p55 TNF receptor, clone MR1-2, ref. MON9062 produced in mice by Genzyme SA, diluted to 1/50 in PBS containing 1% of bovine serum albumin (BSA).
The cells are recovered and are washed with the isotonic PBS buffer. A further incubation is carried out with an antibody against mouse immunoglobulins (IgGs) (produced in the goat) coupled to fluorescein isothiocyanate, diluted to 1/50 in PBS containing 1% of BSA. […]
The influence of the dextran sulfate is determined by introducing 0.1 mg of dextran sulfate per ml into the culture medium.
The presence of TNF alpha receptors at the surface of the cells was measured by fluorescence as in the previous examples.
In FIG. 17, in which the Y-axis represents the number (to within one multiplication factor) of TNF alpha receptors at the surface of the cells, and in which the X-axis represents the intensity of fluorescence (arbitrary units), the Gaussian distribution of the fluorescence for the control sample (curve T1) and for the sample which was incubated in the presence of 0.1 mg/ml of dextran sulfate (curve C17) is represented in the form of a curve.

[4] = Hep-G2, 0.02 mg/ml dextran sulfate (0.2 mg/ml given in source), 6 h (curve C13)
[5] = Hep-G2, 0.02 mg/ml dextran sulfate (0.2 mg/ml given in source), 24 h (curve C14)
[6] = Hep-G2, 0.02 mg/ml dextran sulfate (0.2 mg/ml given in source), 48 h (curve C15)
[7] = Hep-G2, 0.02 mg/ml dextran sulfate (0.2 mg/ml given in source), 72 h (curve C16)
[8] = Hep-G2, dextran sulfate 0.002 mg/ml (curve C12)
[9] = Hep-G2, dextran sulfate 0.02 mg/ml (curve C11)
[10] = Hep-G2, dextran sulfate 0.1 mg/ml (curve C10)
[11] = Hep-G2, dextran sulfate 0.2 mg/ml (curve C9)

dextran sulfate
incubation time of the maximum of the increase in the number of Fas receptors at the cell surface ([1]; 0.02 mg/ml dextran sulfate): 48 h
Fluorescence Value measured (peak of curve) ([1]; 0.02 mg/ml dextran sulfate, 6 h (curve C41)): 100 arbitrary units
Fluorescence Ratio ([1]; 0.02 mg/ml dextran sulfate, 6 h (curve C41), vs control): 2
Fluorescence Value measured (peak of curve) ([1]; 0.02 mg/ml dextran sulfate, 24 h (curve C42)): 120 arbitrary units
Fluorescence Ratio ([1]; 0.02 mg/ml dextran sulfate, 24 h (curve C42), vs control): 2.4
Fluorescence Value measured (peak of curve) ([1]; 0.02 mg/ml dextran sulfate, 48 h (curve C43)): 150 arbitrary units
Fluorescence Ratio ([1]; 0.02 mg/ml dextran sulfate, 48 h (curve C43), vs control): 3
Fluorescence Value measured (peak of curve) ([1]; 0.02 mg/ml dextran sulfate, 72 h (curve C44)): 80 arbitrary units
Fluorescence Ratio ([1]; 0.02 mg/ml dextran sulfate, 72 h (curve C44), vs control): 1.6
minimum concentration for increase in the number of Fas receptors at the cell surface ([1]; at greater dilution effect too diminished, higher concentration does not enhance): 0.02 mg/mL
Fluorescence Value measured (peak of curve) ([1]; dextran sulfate 0.002 mg/ml (curve C5)): 90 arbitrary units
Fluorescence Ratio ([1]; dextran sulfate 0.002 mg/ml (curve C5), vs control): 1.13
Fluorescence Value measured (peak of curve) ([1]; dextran sulfate 0.02 mg/ml (curve C4)): 200 arbitrary units
Fluorescence Ratio ([1]; dextran sulfate 0.02 mg/ml (curve C4), vs control): 2.50
Fluorescence Value measured (peak of curve) ([1]; dextran sulfate 0.1 mg/ml (curve C3)): 250 arbitrary units
Fluorescence Ratio ([1]; dextran sulfate 0.1 mg/ml (curve C3), vs control): 3.13
Fluorescence Value measured (peak of curve) ([1]; dextran sulfate 0.2 mg/ml (curve C2)): 250 arbitrary units
Fluorescence Ratio ([1]; dextran sulfate 0.2 mg/ml (curve C2), vs control without dextran sulfate): 3.13
minimum concentration for increase in the number of Fas receptors at the cell surface ([2]; Hep-G2): 0.02 mg/mL
optimum concentration for increase in the number of Fas receptors at the cell surface ([2]; Hep-G2): 0.1 mg/mL
Fluorescence Value measured (peak of curve) [2, 4]: 40 arbitrary units
Fluorescence Ratio [2, 4]: 1.6
Fluorescence Value measured (peak of curve) [2, 5]: 50 arbitrary units
Fluorescence Ratio [2, 5]: 2
Fluorescence Value measured (peak of curve) [2, 6]: 70 arbitrary units
Fluorescence Ratio [2, 6]: 2.8
Fluorescence Value measured (peak of curve) [2, 7]: 50 arbitrary units
Fluorescence Ratio [2, 7]: 2
incubation time of the maximum of the increase in the number of Fas receptors at the cell surface ([2]; Hep-G2, dextran sulfate): 48 h
Fluorescence Value measured (peak of curve) [2, 8]: 60 arbitrary units
Fluorescence Ratio [2, 8]: 1
Fluorescence Value measured (peak of curve) [2, 9]: 120 arbitrary units
Fluorescence Ratio [2, 9]: 2
Fluorescence Value measured (peak of curve) [2, 10]: 140 arbitrary units
Fluorescence Ratio [2, 10]: 2.3
Fluorescence Value measured (peak of curve) [2, 11]: 160 arbitrary units
Fluorescence Ratio [2, 11]: 2.7
Fluorescence Value measured (peak of curve) ([3]; TNF alpha receptors, dextran sulfate 0.1 mg/ml (curve C17)): 200 arbitrary units
Fluorescence Ratio ([3]; TNF alpha receptors, dextran sulfate 0.1 mg/ml, vs control): 1.14
increase in the number of TNF alpha receptors at the surface ([3]; dextran sulfate 0.1 mg/ml, called weak): 10%

iota-carrageenan [Ic]
incubation time of the maximum of the increase in the number of Fas receptors at the cell surface ([1]; Ic 0.2 mg/ml): 24 h
Fluorescence Value measured (peak of curve) ([1]; Ic 0.2 mg/ml, 6 h): 80 arbitrary units
Fluorescence Ratio ([1]; Ic 0.2 mg/ml, 6 h, vs control): 1.3
Fluorescence Value measured (peak of curve) ([1]; Ic 0.2 mg/ml, 24 h): 180 arbitrary units
Fluorescence Ratio ([1]; Ic 0.2 mg/ml, 24 h, vs control): 2.7
Fluorescence Value measured (peak of curve) ([1]; Ic 0.2 mg/ml, 48 h): 125 arbitrary units
Fluorescence Ratio ([1]; Ic 0.2 mg/ml, 48 h, vs control): 2.1
Fluorescence Value measured (peak of curve) ([1]; Ic 0.2 mg/ml, 72 h): 100 arbitrary units
Fluorescence Ratio ([1]; Ic 0.2 mg/ml, 72 h, vs control): 1.7
